Assay results reported in patent US12285460B2, “Pharmaceutical compositions” (RHYTHM PHARMACEUTICALS, INC., priority 2013, dated 2025).
Bridge positions count the residues as written; N and C are the ends. Square brackets hold non-standard residues; d marks the D form. Peptide text beside a SMILES is read from it.

What was measured:
MC5R = target: T1, MC5R (Homo sapiens, UniProt P33032); test: cAMP assay (EC50), MC5R; format: cell-based; details: for Ratios of EC50 values MC5/4: EC50(MC5R)/EC50(MC4R)
T1 construct: host or cells: CHO-K1 (ECL assay)
T1 sequence (P33032 whole entry): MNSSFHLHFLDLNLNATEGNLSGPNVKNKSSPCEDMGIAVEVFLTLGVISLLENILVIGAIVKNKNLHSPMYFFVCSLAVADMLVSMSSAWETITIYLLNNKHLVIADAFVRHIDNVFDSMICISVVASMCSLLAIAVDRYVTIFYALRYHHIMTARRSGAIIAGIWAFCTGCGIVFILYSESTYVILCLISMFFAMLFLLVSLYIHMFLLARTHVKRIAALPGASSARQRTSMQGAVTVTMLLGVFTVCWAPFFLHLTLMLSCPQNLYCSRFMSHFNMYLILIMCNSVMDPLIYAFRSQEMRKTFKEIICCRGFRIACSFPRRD
Description: Stimulation of intracellular cyclic AMP (cAMP) levels by the peptides is determined in a dose dependent manner by an electrochemiluminescence (ECL) assay (Meso Scale Discovery, Gaithersburg, MD, USA; referred to hereinafter as “MSD”). Briefly, the CHO-K1 cells stably expressing the hMC receptor subtypes are suspended in RMPI 1640® assay buffer (RMPI 1640 buffer contains 0.5 mM IBMX, and 0.2% protein cocktail (MSD blocker A)). About 7,000 cells/well of the transgenic CHO-K1 cells stably expressing hMC receptor subtypes 1, 3, 4 or 5 are dispensed in 384-well Multi-Array plates (MSD) containing integrated carbon electrodes and coated with anti-cAMP antibody. Increasing concentrations of the test compounds are added and the cells are incubated for approximately 40 minutes at 37° C. A cell lysis buffer (HEPES-buffered saline solution with MgCl2 and Triton X-100® at pH 7.3) containing 0.2% protein cocktail and 2.5 nM TAG™ ruthenium-labeled cAMP (MSD) is added and the cells are incubated for approximately 90 minutes at room temperature. At the end of the second incubation period, the read buffer (Tris-buffered solution containing an ECL co-reactant and Triton X-100 at pH 7.8) is added and the cAMP levels in the cell lysates are immediately determined by ECL detection with a Sector Imager 6000 Reader® (MSD). Data are analyzed using a computer-assisted non-linear regression analysis (XL fit; IDBS) and reported as either an EC50 value. […]
(§1) A chemiluminescence readout system that uses an enzyme fragment complementation (EFC) system with β-galactosidase (β-Gal) as the functional reporter system was used. This assay system for various melanocortin receptor systems is commercially available (cAMP Hunter GPCR assay system, Discoverx Corp, Fremont, CA). This assay utilizes the β-Gal enzyme that is split into two complementary portions; EA for Enzyme Acceptor and ED for Enzyme Donor. In the assay, the ED portion fused to cAMP is made to compete with cAMP generated by cells for binding to a cAMP-specific antibody. The EA is then added to form active β-Gal with any unbound ED-cAMP. This active enzyme then converts a chemiluminescent substrate to generate an output signal that is recorded on a standard microplate reader.
(§2) Briefly, 10000 cells per well are plated overnight and each well (cells incubated with 10 μl assay buffer) is then incubated with 4× serial concentration of the test compound in the cell assay buffer (5 μL) and cAMP antibody reagent (5 μL) for 30 min at 37° C. The cell lysis buffer (20 μL) containing ED-cAMP coupled enzyme fragment and the reporter substrate (Emerald II-Galacton Star, 5:1) is then added and incubated for 60 min at room temperature. Next, 20 μL of EA β-Gal fragment reagent is added.

[1] = Pharmacokinetics of formulations after single subcutaneous bolus in Cynomolgus monkeys; format: in vivo; details: cynomolgus monkey, plasma, sc, 0.5 mg/kg body weight
Description: A group of Cynomolgus monkeys (average body weight range of 3 to 7 kg) were randomized into a group of 6 for each formulation described above and for Formulation 3A. Each monkey in the cohort was subcutaneously administered in the scapular area with a single bolus dose of a formulation calculated at 0.5 mg/kg body weight. Blood samples were taken at various time points staring at 30 minutes post dosing to 36 or 48 hours. The plasma was harvested and peptide drug concentration assays using LC-MS/MS technique. The pharmacokinetic data is presented in Table 3 below, and the pharmacokinetic profile is set forth graphically in FIG. 1, FIG. 2, and FIG. 3.

MC1R = target: T2, MC1R (Homo sapiens, UniProt Q01726); test: cAMP assay (EC50), MC1R; format: cell-based; details: EC50(MC1R)/EC50(MC4R)
T2 construct: host or cells: CHO-K1 (ECL assay)
T2 sequence (Q01726 whole entry): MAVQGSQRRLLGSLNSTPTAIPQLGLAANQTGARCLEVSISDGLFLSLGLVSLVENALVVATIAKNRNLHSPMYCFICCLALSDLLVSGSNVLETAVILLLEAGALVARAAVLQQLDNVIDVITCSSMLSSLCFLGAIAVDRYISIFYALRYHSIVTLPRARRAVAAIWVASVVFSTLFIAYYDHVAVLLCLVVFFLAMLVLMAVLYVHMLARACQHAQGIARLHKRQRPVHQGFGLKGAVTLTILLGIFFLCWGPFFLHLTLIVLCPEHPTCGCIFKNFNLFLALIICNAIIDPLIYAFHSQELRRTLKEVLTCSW
Description: (§3) Stimulation of intracellular cyclic AMP (cAMP) levels by the peptides is determined in a dose dependent manner by an electrochemiluminescence (ECL) assay (Meso Scale Discovery, Gaithersburg, MD, USA; referred to hereinafter as “MSD”). Briefly, the CHO-K1 cells stably expressing the hMC receptor subtypes are suspended in RMPI 1640® assay buffer (RMPI 1640 buffer contains 0.5 mM IBMX, and 0.2% protein cocktail (MSD blocker A)). About 7,000 cells/well of the transgenic CHO-K1 cells stably expressing hMC receptor subtypes 1, 3, 4 or 5 are dispensed in 384-well Multi-Array plates (MSD) containing integrated carbon electrodes and coated with anti-cAMP antibody. Increasing concentrations of the test compounds are added and the cells are incubated for approximately 40 minutes at 37° C. A cell lysis buffer (HEPES-buffered saline solution with MgCl2 and Triton X-100® at pH 7.3) containing 0.2% protein cocktail and 2.5 nM TAG™ ruthenium-labeled cAMP (MSD) is added and the cells are incubated for approximately 90 minutes at room temperature. At the end of the second incubation period, the read buffer (Tris-buffered solution containing an ECL co-reactant and Triton X-100 at pH 7.8) is added and the cAMP levels in the cell lysates are immediately determined by ECL detection with a Sector Imager 6000 Reader® (MSD). Data are analyzed using a computer-assisted non-linear regression analysis (XL fit; IDBS) and reported as either an EC50 value.
(§4) Human MC4-R transfected cells are grown to confluence in 96 well plates (plating approximately 250,000 cells per well). The cells are treated in triplicate sets with 0.2 mM isobutylmethylxanthine (IBMX) and graded concentrations of the peptide or alternatively the peptide in the presence of 20 nM NDP-MSH. Cells similarly treated but with only 20 nM NDP-MSH serve as positive controls in a volume of 200 μL. A buffer blank serving as a negative control is also included. After incubation of one hour at 37° C., the cells are lysed by the addition of 50 μL of a cell lysis buffer. Total cAMP accumulated in 250 μL of this incubation medium is quantitated using a commercially available low pH cAMP assay kit (Amersham BioSciences) as per procedure specified by the kit supplier. […] The data for agonist is plotted and curve fitted to determine the EC50 value. A peptide showing accumulation in the same range as the negative control (buffer blank in the absence of alpha-MSH) is ineffective at the test concentration. A peptide showing attenuated accumulation is considered to be an antagonist if there is inhibition in cAMP when alpha-MSH is also present in the assay. Similar assay can be performed with hMC-1R, hMC-3R, and hMC-5R cells.
as §1, with “ED-cAMP.” for “ED-cAMP. This active enzyme then converts a chemiluminescent substrate to generate an output signal that is recorded on a standard microplate reader.”
as §2

MC3R = target: T3, MC3R (Homo sapiens, UniProt P41968); test: cAMP assay (EC50), MC3R; format: cell-based; details: EC50(MC3R)/EC50(MC4R)
T3 construct: host or cells: CHO-K1 (ECL assay)
T3 sequence (P41968 whole entry): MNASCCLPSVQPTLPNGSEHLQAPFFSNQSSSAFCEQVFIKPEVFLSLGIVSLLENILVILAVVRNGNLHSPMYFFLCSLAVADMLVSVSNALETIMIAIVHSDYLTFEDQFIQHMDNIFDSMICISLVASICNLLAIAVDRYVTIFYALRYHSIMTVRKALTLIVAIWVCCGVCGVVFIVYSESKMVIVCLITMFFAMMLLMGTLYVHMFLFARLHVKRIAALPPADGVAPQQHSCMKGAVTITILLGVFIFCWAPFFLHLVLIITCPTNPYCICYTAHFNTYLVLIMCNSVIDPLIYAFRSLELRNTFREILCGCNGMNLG
Description: as §3, §4
as §1, with “ED-cAMP.” for “ED-cAMP. This active enzyme then converts a chemiluminescent substrate to generate an output signal that is recorded on a standard microplate reader.”
as §2

## CC(=O)N[C@@H](CCCNC(=N)N)C(=O)N[C@H]1CSSC[C@@H](C(N)=O)NC(=O)[C@H](Cc2c[nH]c3ccccc23)NC(=O)[C@H](CCCNC(=N)N)NC(=O)[C@@H](Cc2ccccc2)NC(=O)[C@H](Cc2c[nH]cn2)NC(=O)[C@@H](C)NC1=O [Peptide 1]
MC5R
  EC50: 1600 nM
[1]
  Cmax: 1100 ng/mL
  Tmax: 30 min

## CC(=O)N[C@@H](CCCNC(=N)N)C(=O)N[C@H]1CSSC[C@@H](C(N)=O)NC(=O)[C@H](Cc2c[nH]c3ccccc23)NC(=O)[C@H](CCCNC(=N)N)NC(=O)[C@@H](Cc2ccccc2)NC(=O)[C@H](Cc2c[nH]cn2)NC(=O)[C@@H](CC(C)C)NC1=O [Compound 1, Ac-Arg-cyclo[Cys-D-Leu-His-D-Phe-Arg-Trp-Cys]-NH2]
MC1R
  Ratios of EC50 values MC1/4: 0.68
MC3R
  Ratios of EC50 values MC3/4: 1.13
MC5R
  Ratios of EC50 values MC5/4: 130

## CC(=O)N[C@@H](CCCNC(=N)N)C(=O)N[C@H]1CSSC[C@@H](C(N)=O)NC(=O)[C@H](Cc2c[nH]c3ccccc23)NC(=O)[C@H](CCCNC(=N)N)NC(=O)[C@@H](Cc2ccccc2)NC(=O)[C@@H]2CCCN2C(=O)[C@@H](C)NC1=O [Compound 13, Ac-Arg-cyclo[Cys-D-Ala-Pro-D-Phe-Arg-Trp-Cys]-NH2] (Ac-RC[dA]P[dF]RWC-NH2; disulfide 2-8)
MC1R
  Ratios of EC50 values MC1/4: 5
MC3R
  Ratios of EC50 values MC3/4: >200
MC5R
  Ratios of EC50 values MC5/4: 13

## CC(=O)N[C@@H](CCCNC(=N)N)C(=O)N[C@H]1CSSC[C@@H](C(N)=O)NC(=O)[C@H](Cc2c[nH]c3ccccc23)NC(=O)[C@H](CCCNC(=N)N)NC(=O)[C@@H](Cc2ccccc2)NC(=O)[C@H](Cc2cn(C)cn2)NC(=O)[C@@H](C)NC1=O [Compound 6, Ac-Arg-cyclo[Cys-D-Ala-His(1-Me)-D-Phe-Arg-Trp-Cys]-NH2]
MC1R
  Ratios of EC50 values MC1/4: 40
MC3R
  Ratios of EC50 values MC3/4: 6
MC5R
  Ratios of EC50 values MC5/4: 662

## CC(=O)N[C@@H](CCCNC(=N)N)C(=O)N[C@H]1CSSC[C@@H](C(N)=O)NC(=O)[C@H](Cc2c[nH]c3ccccc23)NC(=O)[C@H](CCCNC(=N)N)NC(=O)[C@@H](Cc2ccccc2)NC(=O)[C@H](CCC(N)=O)NC(=O)[C@@H](C)NC1=O [Compound 8, Ac-Arg-cyclo[Cys-D-Ala-Gln-D-Phe-Arg-Trp-Cys]-NH2] (Ac-RC[dA]Q[dF]RWC-NH2; disulfide 2-8)
MC1R
  Ratios of EC50 values MC1/4: 40
MC3R
  Ratios of EC50 values MC3/4: 5
MC5R
  Ratios of EC50 values MC5/4: 155

## CC(=O)N[C@@H](CCCNC(=N)N)C(=O)N[C@H]1CSSC[C@@H](C(N)=O)NC(=O)[C@H](Cc2c[nH]c3ccccc23)NC(=O)[C@H](CCCNC(=N)N)NC(=O)[C@@H](Cc2ccccc2)NC(=O)[C@H](CC(N)=O)NC(=O)[C@@H](C)NC1=O [Compound 9, Ac-Arg-cyclo[Cys-D-Ala-Asn-D-Phe-Arg-Trp-Cys]-NH2] (Ac-RC[dA]N[dF]RWC-NH2; disulfide 2-8)
MC1R
  Ratios of EC50 values MC1/4: 90
MC3R
  Ratios of EC50 values MC3/4: 30
MC5R
  Ratios of EC50 values MC5/4: 530
